Results: patent publication US6653478B2, “Substituted benzimidazol-2-ones as vasopressin receptor antagonists and neuropeptide Y modulators” (Ortho-McNeil Pharmaceutical, Inc., priority 2000, dated 2003)

Columns and labels:
NPY2 receptors = target: T1, NPY2 receptors (Homo sapiens, UniProt P49146); assay: Neuropeptide Y receptor binding assay (125I-PYY, KAN-TS cell membranes); conditions: 10 μM compound; read-out: NPY-2@10, % Inh
T1 construct: Cell Membranes from KAN-TS cells having NPY2 receptors; endogenous in cells; host or cells: KAN-TS cells (membranes)
T1 sequence (P49146 1-381): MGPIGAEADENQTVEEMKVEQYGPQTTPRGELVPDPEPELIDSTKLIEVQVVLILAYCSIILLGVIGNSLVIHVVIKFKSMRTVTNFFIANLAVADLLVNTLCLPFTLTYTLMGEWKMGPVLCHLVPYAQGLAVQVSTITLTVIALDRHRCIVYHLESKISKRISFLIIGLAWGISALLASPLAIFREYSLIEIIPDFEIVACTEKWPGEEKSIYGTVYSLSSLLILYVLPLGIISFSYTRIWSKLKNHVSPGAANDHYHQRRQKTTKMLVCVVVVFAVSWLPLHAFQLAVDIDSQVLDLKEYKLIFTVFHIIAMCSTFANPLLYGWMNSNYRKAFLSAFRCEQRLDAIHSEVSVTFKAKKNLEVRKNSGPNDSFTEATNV
Procedure, shortened: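 Membranes from KAN-TS cells competed with 125I-PYY in binding buffer containing BSA, test compound at 10 μM final, 1 hr at room temperature. Nonspecific binding defined with 1 μM PYY final. Tubes centrifuged, washed with PBS and bound radioactivity gamma-counted.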

human V1a receptor = human V1a receptor (Homo sapiens, UniProt P37288); assay: V1a binding assay (3H-AVP displacement, HEK-293 membranes); set-up: expressed in transfected cells; host or cells: HEK-293 (membranes); conditions: for inhibition at 1 µM: 1.0 μM compound, read-out: V1a@1.0, % Inh
Procedure, shortened: (§1)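 Membranes from transfected HEK-293 cells incubated 1 h at room temperature with ³H-AVP (10,000 cpm) in 50 mM Tris, 5 mM MgCl2, 0.1% BSA, pH 7.5 plus protease inhibitors. Non-specific binding set with 1.25 μM AVP. Bound tracer collected on PEI-soaked GF/C filters and counted by scintillation.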

human V1b receptor = target: T2, human V1b receptor (Homo sapiens, UniProt P47901); assay: V1b binding assay (3H-AVP displacement, HEK-293 membranes); set-up: expressed in transfected cells; host or cells: HEK-293 (membranes); conditions: for inhibition at 1 µM: 1.0 μM compound, read-out: V1b@1.0, % Inh
T2 sequence (P47901 1-424): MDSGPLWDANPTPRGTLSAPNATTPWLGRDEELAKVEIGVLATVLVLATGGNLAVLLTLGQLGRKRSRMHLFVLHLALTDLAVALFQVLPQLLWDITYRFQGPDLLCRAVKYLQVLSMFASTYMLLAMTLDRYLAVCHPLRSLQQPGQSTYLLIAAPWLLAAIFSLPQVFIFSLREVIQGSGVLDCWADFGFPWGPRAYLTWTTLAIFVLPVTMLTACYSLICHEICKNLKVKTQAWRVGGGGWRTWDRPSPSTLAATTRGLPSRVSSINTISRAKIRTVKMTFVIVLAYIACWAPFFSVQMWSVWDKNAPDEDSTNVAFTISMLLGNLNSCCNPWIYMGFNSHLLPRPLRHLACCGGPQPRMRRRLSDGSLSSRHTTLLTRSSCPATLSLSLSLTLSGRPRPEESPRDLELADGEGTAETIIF
Procedure, shortened: as §1

human V2 receptor = human V2 receptor (Homo sapiens, UniProt P30518); assay: V2 binding assay (3H-AVP displacement, HEK-293 membranes); set-up: expressed in transfected cells; host or cells: HEK-293 (membranes); conditions: 1.0 μM compound; read-out: V2@1.0, % Inh
Procedure, shortened: as §1

Sequence of human V1a receptor (P37288 whole entry): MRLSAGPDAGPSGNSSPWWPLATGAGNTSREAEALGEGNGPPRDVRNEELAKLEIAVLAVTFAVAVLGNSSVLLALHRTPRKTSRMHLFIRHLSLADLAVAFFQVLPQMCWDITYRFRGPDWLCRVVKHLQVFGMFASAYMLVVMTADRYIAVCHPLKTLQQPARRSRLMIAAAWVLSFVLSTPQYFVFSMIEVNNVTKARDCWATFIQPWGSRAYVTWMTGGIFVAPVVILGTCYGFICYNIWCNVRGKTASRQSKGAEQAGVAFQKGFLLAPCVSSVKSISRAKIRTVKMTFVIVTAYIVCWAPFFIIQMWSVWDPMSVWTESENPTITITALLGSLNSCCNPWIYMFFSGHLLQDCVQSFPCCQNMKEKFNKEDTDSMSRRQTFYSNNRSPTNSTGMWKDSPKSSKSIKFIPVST
Sequence of human V2 receptor (P30518 whole entry): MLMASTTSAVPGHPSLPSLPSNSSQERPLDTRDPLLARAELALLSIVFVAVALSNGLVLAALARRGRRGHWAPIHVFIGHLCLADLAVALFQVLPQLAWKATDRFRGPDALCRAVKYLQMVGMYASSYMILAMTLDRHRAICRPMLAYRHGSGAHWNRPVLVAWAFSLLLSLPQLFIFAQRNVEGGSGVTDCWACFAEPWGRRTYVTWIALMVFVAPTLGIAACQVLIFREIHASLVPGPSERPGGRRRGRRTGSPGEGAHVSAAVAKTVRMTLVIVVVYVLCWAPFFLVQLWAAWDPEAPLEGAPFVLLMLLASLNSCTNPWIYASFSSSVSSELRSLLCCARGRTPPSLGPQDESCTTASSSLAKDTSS

Row | Compound | inhibition at 10 µM (NPY2 receptors) [%] | inhibition at 1 µM (human V1a receptor) [%] | inhibition at 1 µM (human V1b receptor) [%] | inhibition at 1 µM (human V2 receptor) [%] | IC50 (human V1a receptor) [µM] | IC50 (human V1b receptor) [µM]
1 | O=C(NCc1ccccc1F)N1CCC(n2c(=O)n(CCCN3CCCC3)c3ccccc32)CC1 [Compound 89] | 8 | 34 | 10 | 0 | – | –
2 | CCN(CC)CCn1c(=O)n(C2CCN(C(=S)NCc3ccccc3-c3ccccc3)CC2)c2ccccc21 [Compound 90, 1-(N1-Piperidinocarbothioyl-(2-phenylbenzylamino)-4-yl)-3-(2-diethyaminoethyl)benzimidazol-2-one] | 13 | – | 27 | 5 | 0.062 | –
3 | CCN(CC)CCn1c(=O)n(C2CCN(C(=O)NC(c3ccccc3)c3ccccc3)CC2)c2ccccc21 [Compound 91, 1-(N1-Piperidinocarbonyldiphenylmethylamino-4-yl)-3-(2-N,N-diethyaminoethyl)benzimidazol-2-one] | 56 | 64 | 24 | 0 | – | –
4 | CCN(CC)CCn1c(=O)n(C2CCN(C(=O)Nc3ccccc3C)CC2)c2ccccc21 [Compound 92, 1-[(N1-Piperidinocarbonyl-2-methylphenylamino)-4-yl]-3-(2-N,Ndiethylaminoethyl)-1,3-dihydrobenzimidazol-2-one] | 0 | 3 | 5 | 3 | – | –
5 | CN1CCCC1CCn1c(=O)n(C2CCN(C(=S)NC(c3ccccc3)c3ccccc3)CC2)c2ccccc21 (stereo not shown) [Compound 93] | 17 | – | 48 | 0 | 0.049 | –
6 | CN1CCCC1CCn1c(=O)n(C2CCN(C(=O)NC(c3ccccc3)c3ccccc3)CC2)c2ccccc21 (stereo not shown) [Compound 94] | 78 | 68 | 33 | 8 | – | –
7 | O=C(NC(c1ccccc1)c1ccccc1)N1CCC(n2c(=O)n(CCCN3CCOCC3)c3ccccc32)CC1 [Compound 95, 1-[(N1-piperidinocarbonylbiphenylmethylamino)-4-yl]-3-(3-morpholinopropyl)-1,3-dihydrobenzimidazol-2-one] | 0 | – | 23 | 2 | 0.162 | –
8 | O=C(NC(c1ccccc1)c1ccccc1)N1CCC(n2c(=O)n(CCCN3CCCC3)c3ccccc32)CC1 [Compound 96, 1-[(N1-piperidinocarbonyldiphenylmethylamino)-4-yl]-3-(3-N-pyrrolidinylpropyl)-1,3-dihydrobenzimidazol-2-one] | 20 | – | 43 | 0 | 0.079 | –
9 | O=C(NC(c1ccccc1)c1ccccc1)N1CCC(n2c(=O)n(CCCN3CCCCC3)c3ccccc32)CC1 [Compound 97, 1-[(N1-piperidinocarbonylbiphenylmethylamino)-4-yl]-3-(3-N-piperidinylpropyl)-1,3-dihydrobenzimidazol-2-one] | 14 | – | 35 | 0 | 0.034 | –
10 | CN(CCCn1c(=O)n(C2CCN(C(=S)NC(c3ccccc3)c3ccccc3)CC2)c2ccccc21)C1CCCCC1 [Compound 98, 1-[(N1-piperidinocarbothioylbiphenylmethylamino)-4-yl]-3-(3-N,N-methylcyclohexylaminopropyl)-1,3-dihydrobenzimidazol-2-one] | 85 | – | – | 0 | 0.022 | 0.179
11 | CC1CCN(CCCn2c(=O)n(C3CCN(C(=O)NC(c4ccccc4)c4ccccc4)CC3)c3ccccc32)CC1 [Compound 99, 1-[(N1-piperidinocarbonylbiphenylmethylamino)-4-yl]-3-(4-methylpiperidin-1-yl-propyl)-1,3-dihydrobenzimidazol-2-one] | 29 | – | 46 | 16 | 0.126 | –
12 | CN1CCN(CCCn2c(=O)n(C3CCN(C(=O)NC(c4ccccc4)c4ccccc4)CC3)c3ccccc32)CC1 [Compound 100, 1-[(N1-piperidinocarbonylbiphenylmethylamino)-4-yl]-3-(3-N-(N-Methylpiperazino)propyl)-1,3-dihydrobenzimidazol-2-one] | 6 | – | 36 | 24 | 0.283 | –
13 | CC1CC(C)CN(CCCn2c(=O)n(C3CCN(C(=O)NC(c4ccccc4)c4ccccc4)CC3)c3ccccc32)C1 (stereo not shown) [Compound 101] | 21 | – | 43 | 0 | 0.014 | –
14 | O=C(NC(c1ccccc1)c1ccccc1)N1CCC(n2c(=O)n(CCCN3CC=CC3)c3ccccc32)CC1 [Compound 102] | 23 | – | 41 | 6 | 0.123 | –
15 | O=c1n(CCCCN2CCCC2)c2ccccc2n1C1CCN(C(=S)NC(c2ccccc2)c2ccccc2)CC1 [Compound 104] | 96 | – | 48 | 14 | 0.018 | –
16 | O=c1n(CCCN2CCCCC2)c2ccccc2n1C1CCN(C(=S)NCc2ccccc2)CC1 [Compound 105, 1-[(N1-piperidinocarbothioylbenzylamino)-4-yl]-3-(3-N-piperidinylpropyl)-1,3-dihydrobenzimidazol-2-one] | 12 | 58 | 30 | 0 | 0.188 | –
17 | O=C(NCc1ccccc1)N1CCC(n2c(=O)n(CCCN3CCCCC3)c3ccccc32)CC1 [Compound 106, 1-[(N1-piperidinocarbonybenzylamino)-4-yl]-3-(3-N-piperidinylpropyl)-1,3-dihydrobenzimidazol-2-one] | 0 | 56 | 32 | 2 | – | –
18 | O=c1n(CCCCN2CCCCC2)c2ccccc2n1C1CCN(C(=S)NC(c2ccccc2)c2ccccc2)CC1 [Compound 107] | 95 | – | 45 | 12 | 0.022 | –
19 | O=c1n(CCCO)c2ccccc2n1C1CCN(C(=S)NC(c2ccccc2)c2ccccc2)CC1 [Compound 108, 1-[(N1-piperidinocarbothioylbiphenylmethylamino)-4-yl]-3-(3-hydroxypropyl)-1,3-dihydrobenzimidazol-2-one] | 41 | – | 37 | 16 | 0.579 | –
20 | Cc1ccccc1NC(=S)N1CCC(n2c(=O)n(CCCN3CCCCC3)c3ccccc32)CC1 [Compound 109, 1-[(N1-piperidinocarbothioyl-2-methylphenylamino)-4-yl]-3-(3-N-piperidinylpropyl)-1,3-dihydrobenzimidazol-2-one] | 58 | – | 14 | 0 | 0.056 | –
21 | Cc1ccccc1NC(=O)N1CCC(n2c(=O)n(CCCN3CCCCC3)c3ccccc32)CC1 [Compound 110, 1-[(N1-piperidinocarbonyl-2-methylphenylamino)-4-yl]-3-(3-N-piperidinylpropyl)-1,3-dihydrobenzimidazol-2-one] | 0 | 41 | 19 | 2 | – | –
